Reference: paper PMC8597046, “Use of Mixture Dosing and Nonlinear Mixed Effect Modeling of Eight Environmental Contaminants in Rabbits to Improve Extrapolation Value of Toxicokinetic Data” (Environmental Health Perspectives, 2021)

How the values were obtained:
[1] = TK assay, oral mixture dosing: serum concentrations and noncompartmental analysis (sparse data)
Outline: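 Female New Zealand white rabbits (10-wk, 2.37±0.14kg) got the compound mixture IV via ear-vein catheter or orally into the mouth; serum sampled 15 min to 28 d, 3 (or 6 at 30 min) rabbits per time. Sparse-data noncompartmental analysis gave AUC (linear trapezoidal), CL or CL_F, half-life and F.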

[2] = TK assay, intravenous mixture dosing: serum concentrations and noncompartmental analysis (sparse data)
Outline: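 Female New Zealand white rabbits received a compound mixture IV via ear-vein catheter; serum sampled sparsely (3 rabbits/time point) from 15 min to 28 d. Noncompartmental sparse-data analysis on mean profiles: linear-trapezoidal AUC, CL as dose/AUC0−inf, half-life from λZ, MRT and VSS.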

[3] = Estimation of loading and daily maintenance doses and NLME model simulations; set-up: species or system female rabbits; conditions: oral; for Daily maintenance dose: to maintain serum concentration of 1 ng/mL, daily CL×Css/F; for Daily maintenance dose / Loading dose: DEHP dose for MEHP in serum; for Loading dose: to rapidly attain serum concentration of 1 ng/mL, Vss×Css/F
Protocol: The ultimate goal of this TK investigation was to compute a dosage regimen that allowed targeted steady-state serum concentrations to be attained rapidly for a planned TK/TD trial on the reprotoxic effect of a mixture of environmental contaminants in female rabbits. […] With that in mind, the loading and the daily maintenance doses of each compound were evaluated using Equations 12 and 13, respectively.
This risk was also the reason why the NLME model was employed to simulate the time development of the amounts of compounds in the central and peripheral compartments following administration of the daily maintenance dose of each compound over the same duration.
The loading and maintenance doses computed to ensure a nominal CSS of 1 ng/mL were scaled to determine the doses to be administrated by oral route to female rabbits to maintain the targeted CSS .

[4] = oral mixture dosing, NCA, n=12, MEHP after oral DEHP
[5] = female, New Zealand white (INRA 1777 line), rabbit, in vivo, po
[6] = female, New Zealand white (INRA 1777 line), rabbit, in vivo, po, Serum concentration
[7] = female, New Zealand white, rabbit, in vivo, po, Serum concentration
[8] = female, New Zealand white (INRA 1777 line), rabbit, in vivo, iv
[9] = female, New Zealand white, rabbit, in vivo, iv, Serum concentration

O=S(=O)(O)C(F)(F)C(F)(F)C(F)(F)C(F)(F)C(F)(F)C(F)(F)C(F)(F)C(F)(F)F [nPFOS, linear isomer of perfluorooctane sulfonate]
Oral bioavailability estimated by NCA ([1]; NCA): greater than 100% | CL_F (apparent clearance) ([1]; oral mixture dosing, NCA, n=12): 4.99 mL/day/kg | MRT [1, 4]: 69.92 days | Tmax [1, 4]: 24 h | VZ_F (apparent volume of distribution associated to the terminal phase) [1, 4]: 0.359 L/kg | Serum concentration ([1]; oral, rabbit 13, 4.30 h, MEHP after oral DEHP): 0.71 µmol/L | Serum concentration ([1]; oral, rabbit 14, 0.37 h, MEHP after oral DEHP): 0.23 µmol/L | Serum concentration ([1]; oral, rabbit 14, 4.17 h, MEHP after oral DEHP): 0.89 µmol/L | Serum concentration ([1]; oral, rabbit 15, 4.05 h, MEHP after oral DEHP): 1.04 µmol/L | Serum concentration ([1]; oral, rabbit 15, 23.98 h, MEHP after oral DEHP): 1.28 µmol/L | Serum concentration ([1]; oral, rabbit 16, 0.55 h, MEHP after oral DEHP): 0.14 µmol/L | Serum concentration ([1]; oral, rabbit 16, 72.00 h, MEHP after oral DEHP): 1.10 µmol/L | Serum concentration ([1]; oral, rabbit 17, 0.53 h, MEHP after oral DEHP): 0.12 µmol/L | Serum concentration ([1]; oral, rabbit 17, 72.00 h, MEHP after oral DEHP): 1.54 µmol/L | Serum concentration ([1]; oral, rabbit 18, 0.55 h, MEHP after oral DEHP): 0.29 µmol/L | Serum concentration ([1]; oral, rabbit 18, 71.96 h, MEHP after oral DEHP): 1.25 µmol/L | Serum concentration ([1]; oral, rabbit 19, 12.00 h, MEHP after oral DEHP): 0.66 µmol/L | Serum concentration ([1]; oral, rabbit 19, 168.02 h): 1.01 µmol/L | Serum concentration ([1]; oral, rabbit 20, 12.00 h, MEHP after oral DEHP): 0.69 µmol/L | Serum concentration ([1]; oral, rabbit 20, 168.00 h): 1.07 µmol/L | Serum concentration ([1]; oral, rabbit 21, 12.00 h, MEHP after oral DEHP): 0.81 µmol/L | Serum concentration ([1]; oral, rabbit 21, 168.00 h): 1.06 µmol/L | Serum concentration ([1]; oral, rabbit 22, 672.02 h): 0.45 µmol/L | Serum concentration ([1]; oral, rabbit 23, 671.96 h): 0.82 µmol/L | Serum concentration ([1]; oral, rabbit 24, 672.02 h): 1.02 µmol/L | AUC0−inf ([1]; serum, oral mixture dosing, NCA, n=12, MEHP after oral DEHP): 1,919 μmol×h/L | Cmax ([1]; serum, oral mixture dosing, NCA, n=12, doses in Table 3 r3, MEHP measured after oral DEHP, BPSG after BPS): 1300 nM | CL ([2]; IV mixture dosing, NCA, n=12): 8.3 mL/day/kg | MRT ([2]; IV mixture dosing, NCA, n=12): 971 h | VSS ([2]; IV mixture dosing, NCA, n=12): 0.336 L/kg | VZ ([2]; IV mixture dosing, NCA, n=12): 0.353 L/kg | Serum concentration ([2]; IV, rabbit 1, 0.30 h): 0.32 µmol/L | Serum concentration ([2]; IV, rabbit 1, 4.38 h): 0.28 µmol/L | Serum concentration ([2]; IV, rabbit 1, 24.03 h): 0.26 µmol/L | Serum concentration ([2]; IV, rabbit 2, 0.28 h): 0.43 µmol/L | Serum concentration ([2]; IV, rabbit 2, 4.05 h): 0.28 µmol/L | Serum concentration ([2]; IV, rabbit 3, 0.35 h): 0.38 µmol/L | Serum concentration ([2]; IV, rabbit 3, 4.05 h): 0.37 µmol/L | Serum concentration ([2]; IV, rabbit 4, 0.62 h): 0.35 µmol/L | Serum concentration ([2]; IV, rabbit 4, 72.00 h): 0.29 µmol/L | Serum concentration ([2]; IV, rabbit 5, 0.75 h): 0.38 µmol/L | Serum concentration ([2]; IV, rabbit 5, 72.03 h): 0.31 µmol/L | Serum concentration ([2]; IV, rabbit 6, 0.57 h): 0.36 µmol/L | Serum concentration ([2]; IV, rabbit 6, 71.97 h): 0.33 µmol/L | Serum concentration ([2]; IV, rabbit 7, 11.98 h): 0.29 µmol/L | Serum concentration ([2]; IV, rabbit 7, 168.00 h): 0.27 µmol/L | Serum concentration ([2]; IV, rabbit 8, 12.02 h): 0.24 µmol/L | Serum concentration ([2]; IV, rabbit 8, 167.92 h): 0.23 µmol/L | Serum concentration ([2]; IV, rabbit 9, 11.97 h): 0.31 µmol/L | Serum concentration ([2]; IV, rabbit 9, 168.00 h): 0.28 µmol/L | Serum concentration ([2]; IV, rabbit 10, 671.96 h): 0.15 µmol/L | Serum concentration ([2]; IV, rabbit 11, 672.00 h): 0.16 µmol/L | Serum concentration ([2]; IV, rabbit 12, 671.83 h): 0.19 µmol/L | AUC0−inf ([2]; serum, IV mixture dosing, NCA, n=12): 330 µmol·h/L | Cmax ([2]; serum, IV mixture dosing, NCA, n=12, doses in Table 2 r3, BPSG after BPS dosing): 427 nM | half-life ([2]; terminal, IV mixture dosing, NCA, n=12): 708 h | Daily maintenance dose [3]: 0.0077 µg/kg | Loading dose [3]: 0.37 µg/kg

ClC(Cl)=C(c1ccc(Cl)cc1)c1ccc(Cl)cc1 [pp′DDE, 1,1-Dichloro-2,2-bis(p-chlorophenyl)ethylene]
AUC(0-inf) [1, 5]: 78.6 µM·h | CL/F [1, 5]: 3 mL/min/kg | Cmax [1, 5]: 580 nM | MRT [1, 5]: 12.8 days | Tmax [1, 5]: 24 h | Vd/F [1, 5]: 68.8 L/kg | bioavailability [1, 5]: 62% | half-life [1, 5]: 10.8 days | Serum concentration ([1]; female, New Zealand white (INRA 1777 line), rabbit, in vivo, po, 24 h): 0.43 µmol/L | Serum concentration ([1]; female, New Zealand white (INRA 1777 line), rabbit, in vivo, po, 672.02 h): 0.040 µmol/L | concentration at 0.57 h [1, 6]: 16 nM | concentration at 23.98 h [1, 6]: 250 nM | concentration at 24 h [1, 6]: 720 nM | concentration at 168 h [1, 6]: 110 nM | concentration at 671.96 h [1, 6]: 24 nM | concentration at 672.02 h [1, 6]: 31 nM | Serum concentration ([1]; female, New Zealand white, rabbit, in vivo, po, 72 h): 0.20 µmol/L | concentration at 71.96 h [1, 7]: 250 nM | concentration at 72 h [1, 7]: 140 nM | concentration at 168 h [1, 7]: 110 nM | concentration at 168.02 h [1, 7]: 91 nM | AUC(0-inf) [2, 8]: 19.8 µM·h | Cmax [2, 8]: 900 nM | MRT [2, 8]: 203 h | clearance [2, 8]: 1.83 mL/min/kg | half-life [2, 8]: 238 h | Vd ([2]; female, New Zealand white (INRA 1777 line), rabbit, in vivo, iv, VSS): 23.2 L/kg | Vd ([2]; female, New Zealand white (INRA 1777 line), rabbit, in vivo, iv, VZ): 39.2 L/kg | Serum concentration ([2]; female, New Zealand white, rabbit, in vivo, iv, 24 h): 0.060 µmol/L | Serum concentration ([2]; female, New Zealand white, rabbit, in vivo, iv, 168 h): 0.015 µmol/L | concentration at 0.6 h [2, 9]: 600 nM | concentration at 0.67 h [2, 9]: 900 nM | concentration at 0.77 h [2, 9]: 640 nM | concentration at 24 h [2, 9]: 65 nM | concentration at 24.03 h [2, 9]: 47 nM | concentration at 71.97 h [2, 9]: 27 nM | concentration at 72 h [2, 9]: 26 nM | concentration at 72.03 h [2, 9]: 27 nM | concentration at 167.92 h [2, 9]: 11 nM | concentration at 168 h [2, 9]: 19 nM | concentration at 671.83 h [2, 9]: 3.7 nM | concentration at 671.96 h [2, 9]: 2.8 nM | concentration at 672 h [2, 9]: 6.8 nM | Computed maintenance dose ([3]; daily, scaled to the targeted CSS of Table 6): 95 µg/kg | Computed loading dose ([3]; scaled to the targeted CSS of Table 6): 1,039 μg/kg | Daily maintenance dose [3]: 4.5 µg/kg | Loading dose [3]: 49 µg/kg
